Experimental findings from ChEMBL document CHEMBL1201862, “PubChem BioAssay data set” (2004) are described below.

Calls of active or inactive are those of the source. Where only a bound is given, the exact number is not on record here.

A word on the AC50: it is the concentration at which the activity in the assay is half-maximal. A word on the EC50: it is the concentration that produces a half-maximal response. By Ki is commonly meant a dissociation constant, usually derived from enzyme kinetics or from competition with a known ligand. The term CC50 denotes the concentration at which the toxic effect on the cells reaches its halfway point.

Test [1] concerns the target T1, Mitochondrial peptide methionine sulfoxide reductase (Bos taurus, UniProt P54149).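 Note: absorbance read-out, biochemical high-throughput dose-response screen for MsrA inhibitors, confirmatory; recombinant bovine MsrA coupled to E. coli TrxB with NADPH and selenocystamine; potency is for inhibitors of MsrA activity on DMSO substrate.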
T1 sequence (P54149 whole entry): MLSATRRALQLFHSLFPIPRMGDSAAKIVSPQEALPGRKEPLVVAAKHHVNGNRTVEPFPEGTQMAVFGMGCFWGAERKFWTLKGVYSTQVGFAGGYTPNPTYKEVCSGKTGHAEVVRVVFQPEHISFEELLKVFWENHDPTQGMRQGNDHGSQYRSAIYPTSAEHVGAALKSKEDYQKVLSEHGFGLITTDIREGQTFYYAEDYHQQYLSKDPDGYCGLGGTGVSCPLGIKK
It is filed as functional.

The target in a further test is Cytochrome P450 3A4 (Homo sapiens, UniProt P08684). Conditions: Potency.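 Note: confirmatory qHTS run detecting inhibitors and substrates of CYP3A4.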
Chain of Cytochrome P450 3A4 (P08684 whole entry): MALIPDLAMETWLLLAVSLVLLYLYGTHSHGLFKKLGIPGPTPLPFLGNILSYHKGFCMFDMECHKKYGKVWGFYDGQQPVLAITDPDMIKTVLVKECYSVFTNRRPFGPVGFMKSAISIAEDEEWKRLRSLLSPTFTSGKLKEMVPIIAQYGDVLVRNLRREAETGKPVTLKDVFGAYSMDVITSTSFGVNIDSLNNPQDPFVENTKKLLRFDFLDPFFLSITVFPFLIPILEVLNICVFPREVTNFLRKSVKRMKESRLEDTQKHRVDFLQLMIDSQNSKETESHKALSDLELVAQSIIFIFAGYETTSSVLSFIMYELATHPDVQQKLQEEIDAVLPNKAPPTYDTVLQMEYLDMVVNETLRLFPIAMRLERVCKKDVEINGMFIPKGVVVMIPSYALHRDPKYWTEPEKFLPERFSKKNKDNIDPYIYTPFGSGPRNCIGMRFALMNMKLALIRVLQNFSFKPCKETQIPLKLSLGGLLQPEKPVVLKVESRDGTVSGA
Test [2] has as its target T2, Aryl hydrocarbon receptor (Homo sapiens, UniProt P35869).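 Note: confirmatory quantitative high-throughput screen measuring activation of the AhR signaling pathway.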
T2 sequence (P35869 whole entry): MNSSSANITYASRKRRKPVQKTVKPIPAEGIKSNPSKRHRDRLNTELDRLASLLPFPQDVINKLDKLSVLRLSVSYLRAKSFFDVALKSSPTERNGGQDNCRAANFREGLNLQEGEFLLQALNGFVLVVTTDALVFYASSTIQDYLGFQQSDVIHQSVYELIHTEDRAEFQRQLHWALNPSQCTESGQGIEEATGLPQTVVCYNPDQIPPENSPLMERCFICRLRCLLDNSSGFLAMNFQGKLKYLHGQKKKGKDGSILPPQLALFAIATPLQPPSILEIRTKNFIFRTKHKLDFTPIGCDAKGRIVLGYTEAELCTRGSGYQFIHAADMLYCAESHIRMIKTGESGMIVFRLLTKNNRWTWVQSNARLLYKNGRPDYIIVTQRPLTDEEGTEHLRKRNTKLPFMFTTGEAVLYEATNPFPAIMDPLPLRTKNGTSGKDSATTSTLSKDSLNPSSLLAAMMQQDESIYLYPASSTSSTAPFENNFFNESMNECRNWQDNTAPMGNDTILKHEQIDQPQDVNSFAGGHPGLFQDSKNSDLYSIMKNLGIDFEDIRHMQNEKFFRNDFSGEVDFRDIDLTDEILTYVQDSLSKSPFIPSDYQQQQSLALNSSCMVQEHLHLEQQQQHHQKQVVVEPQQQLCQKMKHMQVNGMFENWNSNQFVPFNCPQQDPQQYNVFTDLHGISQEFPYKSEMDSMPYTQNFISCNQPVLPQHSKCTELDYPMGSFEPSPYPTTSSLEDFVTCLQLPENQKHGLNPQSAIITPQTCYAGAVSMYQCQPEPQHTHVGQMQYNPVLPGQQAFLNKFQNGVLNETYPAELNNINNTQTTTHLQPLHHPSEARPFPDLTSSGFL
Conditions: Potency.

Test [3] addresses Adenosylmethionine-8-amino-7-oxononanoate aminotransferase (Mycobacterium tuberculosis, UniProt P9WQ81). The test is described as follows: Mycobacterium tuberculosis BioA enzyme inhibitor Measured in Biochemical System Using Plate Reader - 2163-02_Inhibitor_Dose_CherryPick_Activity. It counts as functional, Mycobacterium tuberculosis UT205.
In test [4] the test system is BJ. The test is described as follows: cytotoxicity toward BJ-TERT-LT-ST fibroblasts, dose response, cell-based, RAS-independent, luminescence (AID 1935).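 Note: BJ fibroblasts immortalized with TERT plus LT and ST oncogenes.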 It is filed as functional. Conditions: Homo sapiens.
A short description of test [5]: cytotoxicity toward DRD oncogenic fibroblasts, dose response, cell-based, non-viral oncogenic, luminescence (AID 1934). It is filed as functional. Conditions: Homo sapiens.
In test [6] the test system is BJ. The test is described as follows: cytotoxicity toward BJ-TERT fibroblasts, dose response, cell-based, RAS-independent, luminescence (AID 1933). It counts as functional. Conditions: Homo sapiens.
The subject of test [7] is BJ. Briefly: cells. It is filed as functional, cell-based. Particulars: Homo sapiens.
The target in test [8] is T3, Lymphokine-activated killer T-cell-originated protein kinase (Homo sapiens, UniProt Q96KB5).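 Note: value comes from a kinase panel screen in which TOPK was one of the panel members.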
T3 sequence (Q96KB5 whole entry): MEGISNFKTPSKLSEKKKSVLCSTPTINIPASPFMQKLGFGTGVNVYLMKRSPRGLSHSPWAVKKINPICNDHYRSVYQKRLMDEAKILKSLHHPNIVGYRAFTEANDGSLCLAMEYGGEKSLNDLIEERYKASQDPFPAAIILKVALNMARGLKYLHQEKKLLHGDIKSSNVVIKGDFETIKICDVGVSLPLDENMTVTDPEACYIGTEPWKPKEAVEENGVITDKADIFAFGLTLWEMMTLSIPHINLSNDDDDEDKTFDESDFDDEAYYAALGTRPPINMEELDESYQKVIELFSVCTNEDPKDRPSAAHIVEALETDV
It is filed as functional.

Test [9] concerns the target T4, Dual specificity tyrosine-phosphorylation-regulated kinase 3 (Homo sapiens, UniProt O43781).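 Note: measured as one member of a broad kinase panel.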
T4 sequence (O43781 whole entry): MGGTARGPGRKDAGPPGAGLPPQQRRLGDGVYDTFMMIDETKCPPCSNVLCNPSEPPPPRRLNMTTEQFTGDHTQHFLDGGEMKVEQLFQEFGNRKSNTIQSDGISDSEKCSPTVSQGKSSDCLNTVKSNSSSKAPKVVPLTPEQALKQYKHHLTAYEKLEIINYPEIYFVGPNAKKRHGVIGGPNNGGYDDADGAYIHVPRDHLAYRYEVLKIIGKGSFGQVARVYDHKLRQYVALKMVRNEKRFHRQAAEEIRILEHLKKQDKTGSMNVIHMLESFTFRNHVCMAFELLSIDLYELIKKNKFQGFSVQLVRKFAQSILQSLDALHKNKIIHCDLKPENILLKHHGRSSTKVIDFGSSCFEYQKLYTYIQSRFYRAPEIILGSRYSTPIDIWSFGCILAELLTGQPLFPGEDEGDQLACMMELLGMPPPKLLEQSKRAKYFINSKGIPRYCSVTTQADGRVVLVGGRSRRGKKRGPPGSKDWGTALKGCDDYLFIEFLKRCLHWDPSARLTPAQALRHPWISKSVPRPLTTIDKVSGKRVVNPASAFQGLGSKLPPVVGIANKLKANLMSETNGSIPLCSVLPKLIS
It is filed as functional.

The target of test [10] is Protein kinase C gamma type (Homo sapiens, UniProt P05129). It counts as functional.
Test [11] concerns the target MAP kinase-activated protein kinase 3 (Homo sapiens, UniProt Q16644). It is filed as functional.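 Note: value comes from a kinome-wide profiling panel in which MAPKAPK3 is one of the panel members.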
Test [12] addresses T5, Testis-specific serine/threonine-protein kinase 2 (Homo sapiens, UniProt Q96PF2).
T5 sequence (Q96PF2 whole entry): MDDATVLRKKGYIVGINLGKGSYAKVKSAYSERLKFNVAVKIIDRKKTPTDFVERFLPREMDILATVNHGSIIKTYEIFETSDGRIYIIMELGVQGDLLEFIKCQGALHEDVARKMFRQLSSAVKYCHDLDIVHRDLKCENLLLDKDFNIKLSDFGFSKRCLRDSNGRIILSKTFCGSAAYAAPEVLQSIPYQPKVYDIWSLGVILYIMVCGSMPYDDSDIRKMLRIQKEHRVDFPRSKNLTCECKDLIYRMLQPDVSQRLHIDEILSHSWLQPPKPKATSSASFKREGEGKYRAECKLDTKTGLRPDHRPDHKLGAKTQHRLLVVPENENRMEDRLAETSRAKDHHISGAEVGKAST
It counts as functional.

The target of test [13] is T6, Protein kinase C zeta type (Homo sapiens, UniProt Q05513).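 Note: measured as one member of a broad kinase profiling panel.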
T6 sequence (Q05513 whole entry): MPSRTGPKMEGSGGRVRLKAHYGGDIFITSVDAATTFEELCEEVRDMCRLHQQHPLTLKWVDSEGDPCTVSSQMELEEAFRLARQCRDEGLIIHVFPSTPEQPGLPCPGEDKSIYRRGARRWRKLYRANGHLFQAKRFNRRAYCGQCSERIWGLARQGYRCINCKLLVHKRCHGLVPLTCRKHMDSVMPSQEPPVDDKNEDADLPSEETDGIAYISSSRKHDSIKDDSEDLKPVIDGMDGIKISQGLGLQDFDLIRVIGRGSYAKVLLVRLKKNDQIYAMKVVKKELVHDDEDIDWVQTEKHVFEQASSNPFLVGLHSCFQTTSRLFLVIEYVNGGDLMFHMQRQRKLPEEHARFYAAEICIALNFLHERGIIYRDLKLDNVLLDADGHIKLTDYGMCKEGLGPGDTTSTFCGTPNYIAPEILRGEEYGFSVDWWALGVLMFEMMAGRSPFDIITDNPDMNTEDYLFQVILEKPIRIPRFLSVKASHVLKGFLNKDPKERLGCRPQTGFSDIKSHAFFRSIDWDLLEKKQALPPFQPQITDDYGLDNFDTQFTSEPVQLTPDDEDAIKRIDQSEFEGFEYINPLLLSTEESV
It is filed as functional.

The target of test [14] is PAS domain-containing serine/threonine-protein kinase (Homo sapiens, UniProt Q96RG2). It is filed as functional.
Chain of PAS domain-containing serine/threonine-protein kinase (Q96RG2 whole entry, the tested form may be a part): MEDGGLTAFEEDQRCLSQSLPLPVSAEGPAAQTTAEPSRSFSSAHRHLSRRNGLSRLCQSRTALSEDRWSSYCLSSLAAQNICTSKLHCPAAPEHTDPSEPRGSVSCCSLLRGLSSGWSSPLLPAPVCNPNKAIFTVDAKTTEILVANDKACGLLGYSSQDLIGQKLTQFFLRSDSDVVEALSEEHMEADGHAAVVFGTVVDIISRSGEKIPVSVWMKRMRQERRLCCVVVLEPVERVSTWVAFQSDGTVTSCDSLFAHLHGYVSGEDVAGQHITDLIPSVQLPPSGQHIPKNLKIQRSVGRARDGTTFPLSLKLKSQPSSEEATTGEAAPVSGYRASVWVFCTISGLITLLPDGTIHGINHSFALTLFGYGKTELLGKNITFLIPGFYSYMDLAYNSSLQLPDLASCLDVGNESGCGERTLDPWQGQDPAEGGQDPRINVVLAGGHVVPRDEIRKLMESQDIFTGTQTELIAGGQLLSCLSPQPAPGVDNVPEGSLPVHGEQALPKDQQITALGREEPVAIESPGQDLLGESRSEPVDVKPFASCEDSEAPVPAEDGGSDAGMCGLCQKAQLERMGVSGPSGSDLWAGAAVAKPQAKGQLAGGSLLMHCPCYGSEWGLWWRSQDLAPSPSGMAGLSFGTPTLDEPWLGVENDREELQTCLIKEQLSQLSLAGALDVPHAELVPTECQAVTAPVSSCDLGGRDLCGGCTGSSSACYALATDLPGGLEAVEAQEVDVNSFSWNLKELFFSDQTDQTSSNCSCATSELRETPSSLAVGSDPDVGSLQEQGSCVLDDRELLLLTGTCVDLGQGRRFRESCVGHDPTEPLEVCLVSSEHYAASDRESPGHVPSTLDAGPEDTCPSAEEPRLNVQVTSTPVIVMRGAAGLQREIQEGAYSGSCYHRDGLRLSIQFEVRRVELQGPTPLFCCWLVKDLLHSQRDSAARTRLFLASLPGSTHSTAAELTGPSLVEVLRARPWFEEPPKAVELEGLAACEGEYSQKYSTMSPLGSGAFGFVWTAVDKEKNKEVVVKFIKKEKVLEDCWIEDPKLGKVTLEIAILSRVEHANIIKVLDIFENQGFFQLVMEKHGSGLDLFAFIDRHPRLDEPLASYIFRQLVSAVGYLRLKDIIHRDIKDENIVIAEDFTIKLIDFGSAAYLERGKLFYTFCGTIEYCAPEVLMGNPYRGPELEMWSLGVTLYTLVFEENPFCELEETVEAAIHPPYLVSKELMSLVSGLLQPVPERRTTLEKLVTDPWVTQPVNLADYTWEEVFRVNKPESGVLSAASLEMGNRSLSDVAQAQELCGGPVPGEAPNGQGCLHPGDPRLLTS
The target of test [15] is Cyclin-dependent kinase 1 (Homo sapiens, UniProt P06493). It is filed as functional.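 Note: Kinome-wide panel profiling, with the target listed as panel member CDC2.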
Chain of Cyclin-dependent kinase 1 (P06493 whole entry): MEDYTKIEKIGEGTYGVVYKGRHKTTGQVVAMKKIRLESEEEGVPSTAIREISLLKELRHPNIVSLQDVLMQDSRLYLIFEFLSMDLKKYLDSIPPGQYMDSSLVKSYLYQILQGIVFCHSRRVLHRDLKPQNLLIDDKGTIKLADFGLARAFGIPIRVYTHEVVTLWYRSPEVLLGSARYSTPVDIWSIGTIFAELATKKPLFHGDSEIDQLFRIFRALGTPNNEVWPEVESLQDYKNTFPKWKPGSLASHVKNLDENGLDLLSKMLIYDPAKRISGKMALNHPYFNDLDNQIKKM
Test [16] in a line: miR-122 activators in hepatoma reporter cells, dose response, cell-based, Huh7 psiCHECK-miR122, Renilla luciferase, cherry-picked (AID 651956).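 Note: huh7 hepatoma cells stably carrying a psiCHECK-2 miR-122 sensor plasmid; renilla luciferase signal reporting endogenous miR-122 activity after 48 h compound exposure.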 It is filed as functional.
In test [17] the target is T7, Sentrin-specific protease 1 (Homo sapiens, UniProt Q9P0U3).
T7 sequence (Q9P0U3 whole entry): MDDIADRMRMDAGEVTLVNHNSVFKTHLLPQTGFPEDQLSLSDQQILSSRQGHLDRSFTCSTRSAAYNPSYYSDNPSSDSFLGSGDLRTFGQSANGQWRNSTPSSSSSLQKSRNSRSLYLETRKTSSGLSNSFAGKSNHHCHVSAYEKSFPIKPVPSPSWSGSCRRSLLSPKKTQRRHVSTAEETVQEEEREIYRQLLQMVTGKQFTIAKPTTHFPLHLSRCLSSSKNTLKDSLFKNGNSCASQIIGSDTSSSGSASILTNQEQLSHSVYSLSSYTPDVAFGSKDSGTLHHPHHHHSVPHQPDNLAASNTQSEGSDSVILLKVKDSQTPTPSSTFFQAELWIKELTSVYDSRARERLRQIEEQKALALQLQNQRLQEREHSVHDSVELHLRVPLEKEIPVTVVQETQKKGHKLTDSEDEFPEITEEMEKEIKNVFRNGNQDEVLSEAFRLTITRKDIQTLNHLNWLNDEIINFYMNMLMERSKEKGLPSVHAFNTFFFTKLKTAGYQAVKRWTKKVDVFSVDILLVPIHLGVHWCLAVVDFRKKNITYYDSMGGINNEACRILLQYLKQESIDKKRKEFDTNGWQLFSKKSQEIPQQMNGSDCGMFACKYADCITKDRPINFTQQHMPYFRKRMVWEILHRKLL
Briefly: potency of human SENP1 inhibitors, dose response, biochemical, kinetic FRET (AID 651697). It is filed as functional. Particulars: read-out: IC50_Mean.

Test [18] addresses T7, Sentrin-specific protease 1. The test is described as follows: Dose response confirmation of small molecule inhibitors of the catalytic domain of the SUMO protease, SENP1 in a FRET assay. It counts as functional. Particulars: read-out: IC50_Mean.
In the next test the test system is Vero. Briefly: cells. It is filed as functional. Particulars: Chlorocebus sabaeus.

Chain of Adenosylmethionine-8-amino-7-oxononanoate aminotransferase (P9WQ81 whole entry): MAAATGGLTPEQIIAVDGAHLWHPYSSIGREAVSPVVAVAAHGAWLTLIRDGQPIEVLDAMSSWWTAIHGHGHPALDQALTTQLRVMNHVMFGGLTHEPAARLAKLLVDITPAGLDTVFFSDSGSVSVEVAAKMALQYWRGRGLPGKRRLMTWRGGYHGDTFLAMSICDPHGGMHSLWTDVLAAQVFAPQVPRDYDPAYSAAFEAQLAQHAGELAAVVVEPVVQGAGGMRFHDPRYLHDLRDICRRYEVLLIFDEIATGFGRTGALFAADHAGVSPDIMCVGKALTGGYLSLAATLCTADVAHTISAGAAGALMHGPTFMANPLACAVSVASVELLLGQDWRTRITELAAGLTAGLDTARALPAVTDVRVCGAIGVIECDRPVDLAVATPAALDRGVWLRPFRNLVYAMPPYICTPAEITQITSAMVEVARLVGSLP
Chain of MAP kinase-activated protein kinase 3 (Q16644 whole entry): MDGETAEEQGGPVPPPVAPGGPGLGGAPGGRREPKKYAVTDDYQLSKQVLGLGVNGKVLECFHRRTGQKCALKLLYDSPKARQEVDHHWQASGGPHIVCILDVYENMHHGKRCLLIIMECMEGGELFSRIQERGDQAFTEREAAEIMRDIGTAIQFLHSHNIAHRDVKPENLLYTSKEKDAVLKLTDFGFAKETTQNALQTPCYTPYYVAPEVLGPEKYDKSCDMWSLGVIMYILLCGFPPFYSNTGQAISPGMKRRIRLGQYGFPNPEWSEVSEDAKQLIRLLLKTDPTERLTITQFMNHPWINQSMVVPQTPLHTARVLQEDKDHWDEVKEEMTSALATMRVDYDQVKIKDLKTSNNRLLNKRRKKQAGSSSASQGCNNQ

On to `CSc1nc2[nH]c3c(c2c2nnnn12)CCCC3`, for which the IC50 in test [1] is 155 µM (inactive).
On to `COc1ccc(C(=O)Nc2ccccc2)cc1[N+](=O)[O-]`, for which the AC50 at Cytochrome P450 3A4 is 15.8 µM (inconclusive); in [2], 44.7 µM (inconclusive).
As for `COc1cc2cnc(-c3cccnc3)cc2cc1OC`, the AC50 in [3] is 11.2 µM (active).
For the compound `CC(=O)c1ccc(N2CCN(c3ncccn3)CC2)c([N+](=O)[O-])c1`, the EC50 is > 150 µM (inconclusive) with BJ [4], > 150 µM (not active) in test [5], > 150 µM (not active) in the test with BJ [6] and > 150 µM (not active) with BJ [7]. In [3], the AC50 is 1.02 µM (active).
As for `CN1CCN(c2ccc3nc(-c4c(N)c5c(F)cccc5[nH]c4=O)[nH]c3c2)CC1` [DOVITINIB], the Ki in test [8] was > 10 µM (inactive); in test [9], > 6.31 µM (inactive); in test [10], > 7.94 µM (inactive); in test [11], > 10 µM (inactive); in test [12] it was > 1.58 µM (inactive); in test [13], > 7.94 µM (inactive). Moreover, the Ki was > 1.58 µM (inactive) in [14] and > 7.94 µM (inactive) in test [15].
Consider `CC(C)(C)[C@@H](O)/C(=C\c1ccc(Cl)cc1Cl)n1cncn1`, for which the AC50 in test [2] was 70.8 µM (inconclusive).
As for `CNC(=O)C[C@@H]1CC[C@H]2[C@@H](COc3ccc(NC(=O)c4cccc(OC)c4)cc3C(=O)N2C)O1`, in [16], the concentration at half-maximal activity (AC50) was 54.9 µM (active).
With `O=c1c2ccccc2nc(/C=C/c2cc(Br)ccc2O)n1CCO`, the values for the IC50 in test [17] and in test [18] were 8.91 µM (active) and 6.14 µM (active), respectively. Besides, the CC50 in the test on Vero was 15.2 µM (active).
